The assay addresses T1, BTK C481S (Homo sapiens, UniProt Q06187, C481S).
T1 construct: His-TEV-hsBTK(328-659)(C481S) from the Merck Serono Protein Purification Laboratory; His (N); TEV (protease cleavage site) (N)
Description: Assay B: Microfluidic Off-Chip Mobility Shift Assay against BTK C481S enzyme. The class given is biochemical. To be noted: His-TEV-hsBTK(328-659)(C481S), 90 min, 25° C. An excerpt:
Assay B: Microfluidic Off-Chip Mobility Shift Assay Protocol for Potency Assessment Against BTK C481S Enzyme The protocol below describes a microfluidic, off-chip mobility shift kinase assay to measure inherent potency of compounds against BTK C481S enzyme. The mechanics of the assay platform are described by the vendor (PerkinElmer, Hopkinton, Mass.) on their website at the following URL: […].com. Briefly, 2.5× stocks of His-TEV-hsBTK(328-659)(C481S) from the Merck Serono Protein Purification Laboratory in Darmstadt, Germany (PCS, […]/234), 1.6×ATP and appropriate […] peptide substrate (FITC-AHA-[…]-NH2; Tufts University Core Facility custom synthesis) were prepared in kinase reaction buffer consisting of 25 mM MgCl2, 0.015% Brij-35 (30%), 100 mM HEPES, pH 7.5, and 10 mM DTT. […] Terminated reactions were monitored at -2 PSI, -3000 V/-700 Volts in a LabChip 3000 plate reader from Caliper Life Sciences, a PerkinElmer Company (Hopkinton, Mass.), and the activity was quantified by laser-induced fluorescence measuring the charge/mass difference between substrate and product resulting from peptide phosphorylation. IC50 and efficacy were determined by plotting log [Inhibitor] vs. % Activity in GeneData Screener (Basel, Switzerland).

T1 sequence (Q06187 328-659 C481S): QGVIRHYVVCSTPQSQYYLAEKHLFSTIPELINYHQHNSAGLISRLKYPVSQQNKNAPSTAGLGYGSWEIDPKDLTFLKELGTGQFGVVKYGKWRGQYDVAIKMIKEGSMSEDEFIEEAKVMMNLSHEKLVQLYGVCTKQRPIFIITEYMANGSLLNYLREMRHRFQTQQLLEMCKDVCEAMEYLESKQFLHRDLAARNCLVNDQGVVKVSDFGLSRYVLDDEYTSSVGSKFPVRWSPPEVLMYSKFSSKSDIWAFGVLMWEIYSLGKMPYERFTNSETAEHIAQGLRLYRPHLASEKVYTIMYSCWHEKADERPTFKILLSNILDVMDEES

Broadly, the IC50 is the midpoint of a concentration-inhibition curve. As to `CC(C)(C)c1noc(C(=O)NCc2ccc(-c3ccnc4[nH]c(-c5cnn(C6COC6)c5)nc34)cc2F)n1` [Example 128], the IC50 is under 100 nM.

Source of the values: patent publication US10253023B2, “Heteroaryl compounds as BTK inhibitors and uses thereof” (Merck Patent GmbH, priority 2014, dated 2019).
